Test results taken from patent publication EP4793641A1, “NOVEL METHOD FOR ANALYZING BIOMOLECULAR INTERACTIONS” (Kyoto University, priority 2023, dated 2025).
Non-standard residues stand in square brackets, D forms with d. Residues, ends and D or L forms follow the SMILES beside them. *: point of attachment. pT = C[C@@H](OP(=O)(O)O)[C@H](N)C(=O)O; Cam = NC(=O)C*

Target: T1, interactions between Talin 1 (TLN1) and integrin subunit beta (ITGB) (Homo sapiens, UniProt Q9Y490)
T1 construct: LgBit or SmBit (N-terminal of the HaloTag); made in house
Experiment: Flip-flop detection mechanism on DNA origami (LgBit/SmBit luminescence), inhibitor screening
Assay type: biochemical
Conditions: inhibition of binding between TLN1 and ITBG; for IC50: read-out: Inhibitory activity
Excerpt: Two types of systems, i.e., flip-flop detection mechanism and switch detection mechanism, were constructed by using HaloTag, LgBit, SmBit, TLN1, and ITGB. Each of TLN1 (Uniprot ID: Q9Y490) and ITGB1 (Uniprot ID: P05556) was cloned from the registered genetic information. HaloTAg has three chemically modifiable locations at a ligand recognition site, C-terminus, and N-terminus. In this Example, a single-stranded DNA for attaching to DNA origami was connected to a ligand recognition site of HaloTag, a subunit of an interaction complex was connected to the C-terminus, and LgBit or SmBit was connected to the N-terminus.
The outline of the system is disclosed in Figure 23. When TLN1 and ITBG are in a bound state in this system, LgBit and SmBit are at spatially separated positions from each other, with a HaloTag interposed therebetween. In this regard, if an inhibitor is added, complex formation of TLN1 and ITBG is inhibited. As a result, a LgBit-SmBit complex can be formed, and a luminescence reaction progresses.
As a candidate drug for inhibiting the binding between TLN1 and ITBG, peptide inhibitors consisting of 13 amino acids prepared by modifying amino acids in an intracellular region of ITGB3 have been designed (Shen B. et al., A directional switch of integrin signaling and a new antithrombotic strategy. Nature 503, 131-135 (2013)). IC50 values for the peptides shown in the following table were calculated by using the flip-flop detection mechanism described in Example 11 for optimizing the sequence. In this manner, the effect of a large number of compounds on the interaction with a target protein can be readily analyzed in the system of the present disclosed.

Compound	IC50	Inhibitory activity
CSCC[C@H](NC(=O)[C@H](C)NC(=O)[C@H](CCCCN)NC(=O)[C@H](CS)NC(=O)[C@H](CC(N)=O)NC(=O)[C@H](CCSC)NC(=O)[C@H](CCCCN)NC(=O)[C@H](CCC(=O)O)NC(=O)[C@H](CCCCN)NC(=O)[C@H](CCC(=O)O)NC(=O)[C@H](C)NC(=O)[C@@H](N)CCCCN)C(=O)N[C@H](C(=O)O)[C@@H](C)O [FIYM46] (H-KAEKEKMNCKAMT-OH)	474 µM	–
CSCC[C@H](NC(=O)[C@H](CCCCN)NC(=O)[C@H](CCC(=O)O)NC(=O)[C@H](CCCCN)NC(=O)[C@H](CCC(=O)O)NC(=O)[C@H](Cc1ccccc1)NC(=O)[C@@H](N)CCCCN)C(=O)N[C@@H](CC(N)=O)C(=O)N[C@@H](C)C(=O)N[C@@H](CCCCN)C(=O)N[C@@H](Cc1c[nH]c2ccccc12)C(=O)N[C@@H](CC(=O)O)C(=O)N[C@H](C(=O)O)[C@@H](C)O [FIYM1] (H-KFEKEKMNAKWDT-OH)	709 µM	–
CSCC[C@H](NC(=O)[C@H](CCCCN)NC(=O)[C@H](CCC(=O)O)NC(=O)[C@H](CCCCN)NC(=O)[C@H](CCC(=O)O)NC(=O)[C@H](Cc1ccccc1)NC(=O)[C@H](CCCCN)NC(=O)[C@@H]1CCCN1C(=O)CN)C(=O)N[C@@H](CC(N)=O)C(=O)N[C@@H](CS)C(=O)N[C@@H](CCCCN)C(=O)N[C@@H](Cc1c[nH]c2ccccc12)C(=O)N[C@@H](CCSC)C(=O)N[C@H](C(=O)O)[C@@H](C)O [FIYM55] (H-GPKFEKEKMNCKWMT-OH)	–	no inhibition
CSCC[C@H](NC(=O)[C@H](CCCCN)NC(=O)[C@H](CCC(=O)O)NC(=O)[C@H](CCCCN)NC(=O)[C@H](CCC(=O)O)NC(=O)[C@H](Cc1ccccc1)NC(=O)[C@@H](N)CCCCN)C(=O)N[C@@H](CC(N)=O)C(=O)N[C@@H](C)C(=O)N[C@@H](CCCCN)C(=O)N[C@@H](Cc1c[nH]c2ccccc12)C(=O)N[C@@H](CCSC)C(=O)N[C@H](C(=O)O)[C@@H](C)O [FIYM9] (H-KFEKEKMNAKWMT-OH)	–	no inhibition
CSCC[C@H](NC(=O)[C@H](CCCCN)NC(=O)[C@H](CCC(=O)O)NC(=O)[C@H](CCCCN)NC(=O)[C@H](CCC(=O)O)NC(=O)[C@H](Cc1ccccc1)NC(=O)[C@@H](N)CCCCN)C(=O)N[C@@H](CC(N)=O)C(=O)N[C@H](C(=O)N[C@@H](CCCCN)C(=O)N[C@@H](Cc1c[nH]c2ccccc12)C(=O)N[C@@H](CCSC)C(=O)N[C@H](C(=O)O)[C@@H](C)O)[C@@H](C)O [FIYM34] (H-KFEKEKMNTKWMT-OH)	–	no inhibition
CSCC[C@H](NC(=O)[C@H](CCCNC(=N)N)NC(=O)[C@H](CCC(=O)O)NC(=O)[C@@H](N)Cc1ccccc1)C(=O)N[C@@H](CC(N)=O)C(=O)N[C@@H](CS)C(=O)N[C@@H](CCCCN)C(=O)N[C@@H](Cc1c[nH]c2ccccc12)C(=O)N[C@@H](CCSC)C(=O)N[C@H](C(=O)O)[C@@H](C)O [FIYM25] (H-FERMNCKWMT-OH)	–	no inhibition
CSCC[C@H](NC(=O)[C@H](CCCCN)NC(=O)[C@H](CCC(=O)O)NC(=O)[C@H](CCCCN)NC(=O)[C@H](CCC(=O)O)NC(=O)[C@H](Cc1ccccc1)NC(=O)[C@@H](N)CCCCN)C(=O)N[C@@H](CC(N)=O)C(=O)N[C@@H](CCSC)C(=O)N[C@@H](CCCCN)C(=O)N[C@@H](Cc1c[nH]c2ccccc12)C(=O)N[C@@H](CCSC)C(=O)N[C@H](C(=O)O)[C@@H](C)O [FIYM35] (H-KFEKEKMNMKWMT-OH)	–	no inhibition
CSCC[C@H](NC(=O)[C@H](CCCCN)NC(=O)[C@H](CCC(=O)O)NC(=O)[C@H](CCCCN)NC(=O)[C@H](CCC(=O)O)NC(=O)[C@H](Cc1ccccc1)NC(=O)[C@@H](N)CCCCN)C(=O)N[C@@H](CC(N)=O)C(=O)N[C@@H](CSCC(N)=O)C(=O)N[C@@H](CCCCN)C(=O)N[C@@H](Cc1c[nH]c2ccccc12)C(=O)N[C@@H](CCSC)C(=O)N[C@H](C(=O)O)[C@@H](C)O [FIYM39] (H-KFEKEKMNC(Cam)KWMT-OH)	131 µM	–
CC[C@H](C)[C@H](NC(=O)[C@@H]1CCCN1C(=O)[C@H](CC(N)=O)NC(=O)[C@H](CCC(=O)O)NC(=O)CNC(=O)[C@@H](NC(=O)[C@H](CC(=O)O)NC(=O)[C@H](Cc1c[nH]c2ccccc12)NC(=O)[C@H](CCCCN)NC(=O)[C@H](C)NC(=O)[C@H](CC(N)=O)NC(=O)[C@H](CCSC)NC(=O)[C@H](CCCCN)NC(=O)[C@H](CCC(=O)O)NC(=O)[C@H](CCCCN)NC(=O)[C@H](CCC(=O)O)NC(=O)[C@H](Cc1ccccc1)NC(=O)[C@@H](N)CCCCN)[C@@H](C)O)C(=O)N[C@@H](Cc1ccc(O)cc1)C(=O)N[C@@H](CCCCN)C(=O)O [FIYM6] (H-KFEKEKMNAKWDTGENPIYK-OH)	–	no inhibition

Further lines, results first:

IC50	Inhibitory activity	Compound
472 µM	–	CSCC[C@H](NC(=O)[C@H](Cc1c[nH]c2ccccc12)NC(=O)[C@H](CCCCN)NC(=O)[C@H](CS)NC(=O)[C@H](CC(N)=O)NC(=O)[C@H](CCSC)NC(=O)[C@H](CCCCN)NC(=O)[C@H](CCC(=O)O)NC(=O)[C@H](CCCCN)NC(=O)[C@H](CCC(=O)O)NC(=O)[C@H](Cc1ccccc1)NC(=O)[C@@H](N)CCCCN)C(=O)O [FIYM22] (H-KFEKEKMNCKWM-OH)
–	no inhibition	CSCC[C@H](NC(=O)[C@H](CCCCN)NC(=O)[C@H](CCC(=O)O)NC(=O)[C@H](CCCCN)NC(=O)[C@H](CCC(=O)O)NC(=O)[C@H](Cc1ccccc1)NC(=O)[C@@H](N)CCCCN)C(=O)N[C@@H](CC(N)=O)C(=O)N[C@@H](CS)C(=O)N[C@@H](CCCCN)C(=O)N[C@@H](Cc1c[nH]c2ccccc12)C(=O)N[C@@H](CCSC)C(=O)N[C@H](C(=O)O)[C@@H](C)OP(=O)(O)O [FIYM13] (H-KFEKEKMNCKWM[pT]-OH)
–	no inhibition	CSCC[C@H](NC(=O)[C@H](Cc1c[nH]c2ccccc12)NC(=O)[C@H](CCCCN)NC(=O)[C@H](CS)NC(=O)[C@H](CC(N)=O)NC(=O)[C@H](CCSC)NC(=O)[C@H](CCCCN)NC(=O)[C@H](CCC(=O)O)NC(=O)[C@H](CCCCN)NC(=O)[C@H](CCC(=O)O)NC(=O)[C@H](Cc1ccccc1)NC(=O)[C@@H](N)CCCCN)C(=O)N[C@@H](CCCCN)C(=O)O [FIYM11] (H-KFEKEKMNCKWMK-OH)
76.9 µM	–	CSCC[C@H](NC(=O)[C@H](CCCCN)NC(=O)[C@H](CCC(=O)O)NC(=O)[C@H](CCCCN)NC(=O)[C@H](CCC(=O)O)NC(=O)[C@H](Cc1ccccc1)NC(=O)[C@@H](N)CCCNC(=N)N)C(=O)N[C@@H](CC(N)=O)C(=O)N[C@@H](CS)C(=O)N[C@@H](CCCCN)C(=O)N[C@@H](Cc1c[nH]c2ccccc12)C(=O)N[C@@H](CCSC)C(=O)N[C@H](C(=O)O)[C@@H](C)O [FIYM26] (H-RFEKEKMNCKWMT-OH)
314 µM	–	C[C@H](NC(=O)[C@H](CCCNC(=N)N)NC(=O)[C@H](C)NC(=O)[C@H](CCCNC(=N)N)NC(=O)[C@H](CCC(=O)O)NC(=O)[C@H](CCC(=O)O)NC(=O)[C@H](CCC(=O)O)NC(=O)[C@H](Cc1ccccc1)NC(=O)[C@@H](N)CCCCN)C(=O)N[C@@H](CCCCN)C(=O)N[C@@H](Cc1c[nH]c2ccccc12)C(=O)N[C@@H](CC(=O)O)C(=O)N[C@H](C(=O)O)[C@@H](C)O [FIYM45] (H-KFEEERARAKWDT-OH)
–	no inhibition	CSCC[C@H](NC(=O)[C@H](CCCNC(=N)N)NC(=O)[C@H](CCC(=O)O)NC(=O)[C@H](CCCCN)NC(=O)[C@H](CCC(=O)O)NC(=O)[C@H](Cc1ccccc1)NC(=O)[C@@H](N)CCCCN)C(=O)N[C@@H](CC(N)=O)C(=O)N[C@@H](CS)C(=O)N[C@@H](CCCCN)C(=O)N[C@@H](Cc1c[nH]c2ccccc12)C(=O)N[C@@H](CCSC)C(=O)N[C@H](C(=O)O)[C@@H](C)O [FIYM28] (H-KFEKERMNCKWMT-OH)
–	no inhibition	KF(-CI)EKEKMNCKWMT (KFEKEKMNCKWMT) [FIYM18]
